Measured values reported in article PMC6920794, “Evaluation of Novel Chalcone-Thiosemicarbazones Derivatives as Potential Anti-Leishmania amazonensis Agents and Its HSA Binding Studies” (Biomolecules, 2019).

Legend:
[1] = constant of substituent 4-X; cited from earlier work
[2] = target: T1, human serum albumin (HSA) (Homo sapiens, UniProt P02768); assay: HSA time-resolved fluorescence decays; type: binding; settings: 5e 2.78 × 10^−5 M, HSA 1.00 × 10^−5 M, room temperature
T1 construct: purchased Sigma Aldrich, St. Louis, MO, USA
T1 sequence (P02768 25-609): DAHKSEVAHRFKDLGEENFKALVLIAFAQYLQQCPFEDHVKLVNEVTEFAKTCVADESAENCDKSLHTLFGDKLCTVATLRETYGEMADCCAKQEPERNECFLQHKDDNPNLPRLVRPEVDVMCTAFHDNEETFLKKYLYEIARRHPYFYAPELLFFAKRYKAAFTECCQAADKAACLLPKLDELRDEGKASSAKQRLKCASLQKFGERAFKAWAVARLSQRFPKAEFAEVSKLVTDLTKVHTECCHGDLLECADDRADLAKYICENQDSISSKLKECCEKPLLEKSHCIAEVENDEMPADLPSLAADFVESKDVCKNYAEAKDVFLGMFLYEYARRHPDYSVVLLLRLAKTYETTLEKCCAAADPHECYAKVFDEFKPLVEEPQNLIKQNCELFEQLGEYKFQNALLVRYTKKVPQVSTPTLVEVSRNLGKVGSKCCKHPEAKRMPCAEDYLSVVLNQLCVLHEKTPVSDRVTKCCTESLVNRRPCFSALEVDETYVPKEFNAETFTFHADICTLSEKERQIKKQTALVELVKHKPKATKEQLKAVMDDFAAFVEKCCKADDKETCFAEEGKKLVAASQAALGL
Description: The fluorimeter model FL920 CD from Edinburgh Instruments (Edinburgh, UK), equipped with an electrically pumped laser (EPL, with λexc = 280 ± 10 nm; a pulse of 850 ps with the energy of […]; monitoring emission at 340 nm) was used for time-resolved fluorescence decays measurement. The experiment was conducted for a 3.0 mL HSA solution (1.00 × 10^−5 M, in PBS) without and in the presence of 5e (2.78 × 10^−5 M) at room temperature.

[3] = system: L. amazonensis axenic amastigotes; assay: Axenic amastigotes assay (resazurin); type: cell-based; settings: Leishmania amazonensis, 72 h of culture, table title says 48 h
Description: Promastigote forms of L. amazonensis (MHOM/BR/77/LTB0016) were grown to a stationary phase, washed once in phosphate buffer solution (PBS) (pH = 7.4) and adjusted to 5 × 10^6 parasites/mL in Schneider’s medium, supplemented with 20% fetal bovine solution (FBS) pH = 5.5 and maintained at 305K. After 5 days of cultivation, the rounded forms without free flagella were obtained and, after heat shock, were used in the appropriate assays. To evaluate the activity against axenic amastigotes, the parasites were incubated with increasing concentrations of the prototypes (diluted in DMSO) for 72 h at 305K. These assays were performed in triplicate in 96-well flat bottom plates (Falcon Co, Franklin Lakes, USA). The leishmanicidal activity was evaluated by adding 22 μl of resazurin to each well. After 4 h, the cell viability was measured as described above. Calculation of the IC50 values was determined in relation to the control by a sigmoidal model using GraphPad Prism 6.0 software.

[4] = system: murine peritoneal macrophages; assay: Macrophage cytotoxicity (resazurin); type: cell-based; settings: BALB/c, mouse, 48 h, pH 7.2
Description: Peritoneal macrophages from albino laboratory-bred strain (BALB/c) mice were obtained in RPMI 1640 medium at pH 7.2 (Gibco, New York, NY, USA) supplemented with 10% (v/v) heat-inactivated fetal bovine serum, 100 U/mL penicillin and 0.1 mg/mL of streptomycin and distributed (1 × 10^6 macrophages/well) in triplicate in 96-well plates (Falcon Co., Franklin Lakes, USA) and incubated for 1 h in a 5% CO2 atmosphere incubator at 310K. The supernatant was removed, and the compounds were added to the plate at concentrations from 10 µM to 50 µM. Next, the cultures were incubated for 48 h in a CO2 incubator at 310K. After incubation, the supernatant was removed and a resazurin solution (50 µM) was added to each well and incubated at 310K for 4 h. Furthermore, the fluorescence was measured using a wavelength of 560 nm for excitation and 590 nm for detection (Molecular Devices, Silicon Valley, USA). Results were expressed as the percentage of viable cells compared to the control cells treated with the highest DMSO dose used to dissolve the drugs. The 50% cytotoxic concentration (CC50) was calculated using GraphPad Prism 6.0 software (GraphPad Company, San Diego, CA, USA).

[5] = system: L. amazonensis promastigotes; assay: Promastigote assay (MTT); type: cell-based, Leishmania amazonensis; settings: Leishmania amazonensis, after 48 h of culture (table title)
Description: Leishmania amazonensis (MHOM/BR/77/LTB0016) were regularly isolated from infected mice and maintained in culture as promastigotes through weekly passages in Schneider’s medium (Sigma Aldrich, St. Louis, MO, USA) supplemented with 10% (v/v) heat-inactivated fetal calf serum, penicillin (100 UI/mL), and streptomycin (100 µg/mL) at 299K. Parasites were maintained until the 10th passage. The Animal Ethics Committee of the Oswaldo Cruz Foundation (license number L026/2015) approved this study.
Promastigotes of L. amazonensis (1 × 10^6 promastigotes/mL) in the 4th day on culture in the conditions described above were incubated with the chalcones serially diluted in culture medium (0.032% v/v DMSO at the highest concentration tested) on a 96-well cell culture plate (TPP™ test plate, Switzerland). The assayed concentrations ranged from 50 to 1.56 µM for all chalcone-thiosemicarbazones (5a–g) and for pentamidine (Sigma Aldrich, St. Louis, MO, USA). […] All compounds were analyzed in at least three experiments performed in triplicate. Pentamidine was used as the reference drug and diluted in the same concentrations used for 5a–g. The vehicle (DMSO) had no effect on the parasites.
The antileishmanial activity was evaluated by adding 22 µL of 3-(4,5-dimethylthiazol-2-yl)-2-5diphenyltetrazolium bromide (MTT) at 5 mg/mL (Sigma Aldrich, St. Louis, MO, USA) to each well. After 2 h, 80 µL of DMSO was added and the optical density was determined at a wavelength of 570 nm in a microplate reader (µQuant Bio-Tek Instruments®, Winooski). The assays were carried out in triplicate in 96-well plates (Costar, New York, USA). The inhibition percentage was estimated by the comparison with the non-treated control. The values for the inhibitory concentration for 50% of the promastigotes (IC50) were calculated by a sigmoidal model.

[6] = target: T1, human serum albumin (HSA); assay: HSA circular dichroism (α-helix content); type: binding; settings: 310K, 5e 2.78 × 10^−5 M
Description: Circular dichroism (CD) spectra were measured in the same equipment used in the steady-state fluorescence analysis, using 200–250 nm range at 310K (human body temperature). The experiment was conducted for a 3.0 mL HSA solution (1.00 × 10^−6 M, in PBS) in the absence and presence of 5e (2.78 × 10^−5 M). Each spectrum obtained was the average of three scans. The intensity of the signal from the CD spectra was expressed as mean residue ellipticity (MRE), defined according to Equation (7):(7) MRE=θ/10×n×l×Cp where θ, n, l and Cp are the observed CD (in millidegrees), number of amino acid residues (585 for HSA), optical pathlength of the cell (1.00 cm) and molar concentration of HSA (1.00 × 10^−6 M), respectively.
In order to calculate quantitative information on the percentage of changes in the α-helix content upon 5e binding, the resulting MRE at 208 and 222 nm (far-UV region) were analyzed according to Equations (8A) and (8B):(8A) α−helix%=(−MRE208−4000)/(33000−4000)×100 (8B) α−helix%=(−MRE222−2340)/30300×100

- HSA fluorescence lifetime τ1 in the presence of ligand [2]: 1.77 ± 0.12 ns
- HSA fluorescence lifetime τ2 in the presence of ligand [2]: 5.91 ± 0.16 ns
- IC50 [3]: 3.19 ± 1.2 µM
- IC50 [5]: 5.22 ± 0.75 µM
- α-helix content of HSA:5e at 222 nm ([6]; HSA alone 53.5%): 52.2%
- α-helix content of HSA:5e at 208 nm ([6]; HSA alone 57.1%): 55.2%
SMILES: NC(=S)N/N=C(\C=C\c1ccc(Cl)cc1)c1ccccc1 [Compound 5e, (1E,2E)-3-(4′-chlorophenyl)-1-phenylprop-2-en-1-one thiosemicarbazone]
- Hammett constant σp [1]: 0.34
- Hansh constant π (lipophilicity) [1]: 0.71
- Taft constant Es [1]: −0.97
- molecular refractivity MR [1]: 0.60
- Macrophages LD50 [4]: 32.48 ± 1.81 µM
